Experimental data as given in patent US12171233B1, “Ethyl {[N′-(3-chlorophenyl)-N-(2,4-dichlorobenzoyl) carbamimidoyl]sulfanyl}acetate as an eco-friendly insecticidal agent against Spodoptera littoralis (Boisd.)” (priority 2023, dated 2024).
In brackets after ≈: the same amount, converted by molar mass. Where two headings read alike, the source gives them in different places.

System: Spodoptera littoralis larvae (2nd and 4th instar)
Test: Insecticidal bioassay screening (castor leaf dip)
Assay type: in vivo
Details: for LC50 (ppm) at 95% / LC90 (ppm) at 95%: after 72 h of treatment; for LC50: foliar; for Toxicity index %: Diflubenzuron LC50 / compound LC50 x 100
Protocol: In this experiment, castor leaves are immersed in each of the previously prepared concentrations of the components for 10 seconds and then left to dry for 60 minutes. Larvae of the second and fourth instars of each checked strain are prepared with treated leaves in gauze-covered glass containers for 72 hrs. An untreated control is made in which leaves are dipped in triton x-100 and distilled water only. Then the preserved leaves were removed & fresh, untreated leaves were provided for 72 hours. Three replicates (10 larvae each) were checked for each concentration. Daily inspection was carried out for all treatments and mortality percentages were recorded 3 days (72 hours) after treatment. The average mortality percentage was corrected employing Abbott's formula. The corrected mortality rate for each of the previously synthesized compounds is statistically calculated according to Finney (1970). Through this rate, the corresponding concentration test lines (LDP lines) are assessed. Fifty and ninety percent mortality are determined, and the regression values for the checked products were previously evaluated.

[1] = 2nd instar larvae of S. littoralis
[2] = 4th instar larvae of S. littoralis

SMILES	LC50 (ppm) at 95% [1]	LC50 (ppm) at 95% [2]	effect on larval morphology (FIGS. 1A-1B) (S. littoralis larvae versus normal larvae (control))	activity against Spodoptera littoralis (in words) (compared with reference insecticide Diflubenzuron)	LC50 (against Spodoptera littoralis under laboratory conditions (instar not given), read-out: LC50)	LC90 (ppm) at 95% [1]	Toxicity index % (2nd instar larvae)	LC90 (ppm) at 95% [2]	Toxicity index % (4th instar larvae)	LC50 (Spodoptera littoralis)
CCOC(=O)CS/C(=N\c1cccc(Cl)c1)NC(=O)c1ccc(Cl)cc1Cl [Compound 2, Ethyl {[N′-(3-chlorophenyl)-N-(2,4-dichlorobenzoyl)carbamimidoyl]sulfanyl}acetate]	about 211.4 ppm	about 472.3 ppm	Morphological malformations	active against Spodoptera littoralis	211 µg/mL					
O=C(NC(=O)c1c(F)cccc1F)Nc1ccc(Cl)cc1 [Diflubenzuron, reference compound]	45.20 ppm	144.05 ppm				520.0 ppm	100%	1540.5 ppm	100%	45.2 µg/mL (≈ 145 µM)
O=C(NC(=S)Nc1cccc(Cl)c1)c1ccc(Cl)cc1Cl [Compound 1, 2,4-dichloro-N-[(3-chlorophenyl)carbamothioyl]benzamide]	211.4 ppm	472.3 ppm				1913.2 ppm	21.1%	4322.7 ppm	30.5%	
